The results in this text go back to US20230165792A1, “LIQUID FORMULATION AND PHARMACEUTICAL PRODUCT CONTAINING CILASTATIN” (Denka Company Limited, priority 2020, published 2023).

Each structure is given as a SMILES string. Where two headings read alike, the source gives them in different places.

For data set [1] the following is noted: for Absorbance: 400 nm; for Cilastatin content: HPLC. On the procedure: Then, the glass vial was sealed and heated at 80° C. for 4 hours (to obtain a nitrogen-purged, heated sample). The aqueous solution before heating and the two samples prepared above were measured for absorbance, which served as an index for the degree of coloration, and also analyzed by HPLC to confirm the content of cilastatin.
The analysis conditions are detailed below.
Absorbance Measurement Conditions:
Equipment: Hitachi U-3900
Optical path length: 1 cm
HPLC Analysis Conditions:
Detector: Ultraviolet absorptiometer (measurement wavelength: 216 nm)
Column: 1.7 μm octadecylsilylated silica gel column (Acquity BEH C18, produced by Waters), 2.1 mm I.D., 50 mm long
Column temperature: 40° C.
Mobile phase: 25 mM phosphate buffer containing 9.5% acetonitrile (pH 4.25)
Amount of sample injected: 5 μL (prepared to 100 μg/mL)
Retention time: Cilastatin (about 2.6 min.)

[2] abbreviates: N2-purged headspace, heated 80° C. for 4 hours.

Take `CC1(C)C[C@@H]1C(=O)N/C(=C\CCCCSC[C@H](N)C(=O)O)C(=O)O` [cilastatin sodium, (Z)-7-[[(R)-2-amino-2-carboxyethyl]thio]-2-[[[(S)-2,2-dimethylcyclopropyl]carbonyl]amino]-2-heptenoic acid]: the “appearance according to visual observation” value in data set [1] (200 mg/mL aqueous solution) is “slightly yellow”. For the same molecule, the “pH at the time of preparation” value in data set [1] (200 mg/mL aqueous solution) is given as 6.79. Also, the Absorbance is given as 0.166 in data set [1] (setting [2]); 0.040 in data set [1] (before heating, 200 mg/mL aqueous solution, optical path 1 cm); 0.203 in data set [1] (heated sample: sealed glass vial, 80° C. for 4 hours). Also, the Cilastatin content stood at 99.15% in data set [1] (setting [2]) and 98.99% in data set [1] (before heating). Also, the content of cilastatin entry (after storage at 45° C.) is recorded as “decreased slightly”. Moreover, the color of solution entry is “yellow” (after storage at 45° C. for 23 days); “brown” (after storage at 45° C. for 65 days); “slightly yellow” (at the time of preparation, deionized water).
